Laboratory results as given in US6663846B1, “Devices and methods for monitoring drug therapy compliance” (priority 1998, dated 2003).

Experiments:
[1] = Frequency-domain intensity decay (fluorescence lifetime) measurements; type: physicochemical; settings: for decay time: Rh800 in 0.5% intralipid, Ru complex in PVA film
Experimental: Frequency domain intensity decay measurements were performed as described previously. Phase angles and modulation measurements at frequencies greater than 1.88 MHz were accomplished using the harmonic content of the picosecond pulses. The excitation was polarized vertically, and the emission detected without an emission polarizer. The re-emergent light was either observed directly, or through two cut-off filters (630 and 660 nm) to remove scattered light and/or attenuate the fluorophore emission relative to that of the long lived reference.
A long lifetime reference signal was provided by [Ru(bPY)2(dppz)](PF6)^2 in a polyvinyl alcohol (PVA) film, where bpy is 2,2′-bipyridine and dppz is dipyrido[3,2-a:2′,3′-cl]phenazine. Such metal-ligand complexes are known to display lifetimes from 100 ns to 13 (s. The intensity decay time of [Ru(bpy)2(dppz)](PF6)2 in the PVA film was near 800 ns (Table 1 as shown in FIG. 20).
The intensity decay data was analyzed in terms of the multi-exponential model [formula]
In this expression αi represents the pre-exponential factors associated with each lifetime τi. The fractional contribution of each decay time component to the steady state intensity is given by [formula]
The values of Σαi and Σfi are typically normalized to unity. The mean lifetime is given by [formula]
In the frequency-domain measurements the measured quantities are the phase shift of the emission […] and its modulation (m107) at the light modulation frequency ωi in radians/sec. The values of αi and τi are determined by non-linear least squares fitting and minimization of the goodness-of-fit parameter X^2R. [formula]
In this expression the subscript c refers to calculated values of φω and mω for assumed values of αi and τi and ν is the number of degrees of freedom. δω and δm represent the uncertainties in the measured values. In some cases we performed a global analysis of data measured at more than one fluorophore concentrations. In this case the sum in equation 3 extends over these multiple concentrations (k).
We examined the frequency-domain intensity decay of Rh800 and IcG in 0.5% intralipid. As the concentration of Rh800 increased the frequency response shifted to higher frequency (FIG. 5). […] In 0.5% intralipid the intensity decay of Rh800 becomes more complex. The data could be fit to a two decay time model. The individual decay times and the mean decay times decreased with increasing Rh800 concentrations (FIG. 6). Similar results are found for IcG, with the decay times and mean decay time decreasing with increasing IcG concentration (Table III, as shown in FIG. 22).

[2] = Emission spectra, front-face illumination, excitation at 600 nm; type: physicochemical; settings: for emission peak: in 0.5% intralipid; for emission maximum: in water
Experimental: All fluorescence measurements were performed using front-face illumination and detection, using the sample holder shown in FIG. 18. The incident light was redirected from the usual position using two mirrors. The position of the sample could be adjusted with a movable stage. The re-emergent light passed through one or more optical filters prior to reaching the destination.
The sample consisted of either a cuvette containing the intralipid, or a quartz slide covering the chicken muscle and skin (FIG. 19). Excitation at 600 nm was provided by the fundamental output of a rhodamine 6G dye laser. This dye laser was synchronously pumped by a mode-locked argon ion laser, and cavity dumped at 1.88 MHz.
For the present studies we used two fluorophores with ns decay times, Rh800 and IcG, and a long lifetime metal ligand complex. We refer to this long lifetime reference as the Ru complex (FIG. 1). All three fluorophores can be excited at 600 nm. In water Rh800 emits maximally near 706 nm, and IcG near 805 nm. […] The emission spectra of Rh800 and IcG in 0.5% intralipid is similar to those observed in water (FIG. 2).

[3] = humans; cited from earlier work
[4] = cited from earlier work

intensity decay time ([1]; in water, no intralipid, single exponential) [ns] | emission peak [2] [nm] | emission maximum [2] [nm] | Compound | decay time [1] [ns] | clearance from circulation [3] | fluorescence in water [4] | intensity decay time in PVA film ([1]; polyvinyl alcohol film) [ns]
0.686 | ~710 | ~706 | Rhodamine 800 [Rh800] | 1.62 | – | – | –
– | ~820 | ~805 | CC1(C)C(/C=C/C=C/C=C/C=C2\N(CCCCS(=O)(=O)O)c3ccc4ccccc4c3C2(C)C)=[N+](CCCCS(=O)(=O)[O-])c2ccc3ccccc3c21 [IcG, indocyanine green] | – | rapidly cleared from circulation | – | –
– | – | – | Ruthenium bis-2,2′-bipyridine dipyridophenazine [Ru complex] | 834 | – | essentially non-fluorescent in water | ~800
